The subject of experiment [1] is type IV phosphodiesterase. In words: Type IV phosphodiesterase inhibiting activity (3H-cAMP hydrolysis, PDE IV fraction from U937 cells). It counts as biochemical. To be noted: PDE IV fraction from human U937 cells, 30° C., 30 minutes. Here is the method:
(1) Method of Measurement of Type IV Phosphodiesterase Inhibiting Activity
The following assay was used to evaluate the ability of the compound of the present invention to suppress type IV phosphodiesterase, according to Biochemical.
1) Type IV phosphodiesterase activity fractions were prepared as follows. Human histiocytic lymphoma cell line U937 was cultured in an RPMI1640 medium containing 10% fetal calf serum to obtain 10^9 cells of U937. The cells were recovered by centrifugation and suspended in 40 ml of buffer A (20 mM bis-tris, 5 mM 2-mercaptoethanol, 2 mM benzamidine, 2 mM EDTA, 0.1 mM 4-(2-aminoethyl)benzensulfonyl hydrochloride, 50 mM sodium acetate, pH=6.5). The cells were broken by a sonication and centrifuged (4° C., 10,000G, 10 minutes) to obtain a supernatent. This was filtered by a 0.45 μm filter to obtain the soluble fraction.
The soluble fraction obtained was applied into a 1×10 cm DEAE Sepharose column equalibrated with the buffer A. 120 ml of the buffer A containing a linear gradient solution of 0.05 to 1 M sodium acetate was used to separate the phosphodiesterase and recover 24 5-ml fractions. Each of the fractions was measured for the cAMP phosphodiesterase activity.
2) The test compound was reacted at a desired concentration in a reaction mixture containing 20 mM tris-HCl (pH 7.5), 1 mM MgCl2, 100 μM EDTA, 330 μg/ml calf serum albumin, 10 μg/ml 5′-nucleotidase, 0.4 μCi ^3H-cAMP ([…] cAMP) and the type IV phosphodiesterase stored solution at 30° C. for 30 minutes. QAE-Sephadex suspended in 10 mM of hepes-Na (pH-7.0) was added to the reaction mixture which was then allowed to stand for 5 minutes, then the supernatant was obtained, QAE-Sephadex was further added, to the supernatant, and was allowed to stand for 5 minutes, then the supernatant was obtained and measured for radioactivity.

Experiment [2] concerns TNF-α production by LPS stimulated mouse peritoneal macrophages. In words: TNF-α production inhibitory activity by LPS stimulated macrophages (ELISA). As to conditions: LPS 10 μg/ml, 8 hours. It counts as cell-based. Here is the method:
(1) Method of Measurement of TNF-α Production Inhibitory Activity by LPS Stimulated Macrophages
The following assay was used to evaluate the ability of the compound of the present invention to suppress TNF-α production by LPS stimulated macrophages according to Immuno pharmacol. 29, 121-127 (1995).
1) 6 to 10 week old female BALB/c mice were used, 2 ml portions of thioglycolate were intraperitoneally administered, and the abdominal cavities were washed by 10 ml of PBS after 4 days, whereby 1 to 2×10^7 peritoneal cells were obtained per mouse. These were suspended in a hemocyte solution (0.75% ammonium chloride, 17 mM tris-hydrochlorate buffer, pH7.2), centrifuged, then resuspended in an RPMI1640 medium including 10% fetal calf serum and seeded in a 96-well cell culture plate at a density of 1×10^5 cells/50 μl/well. Since these cells adhered strongly to the tissue culture plate and were positive in nonspecific esterase staining, they were used for the test as mouse peritoneal macrophages. Mouse peritoneal macrophages were precultured overnight at 37° C. in 5% CO2 for the experiment.
2) E. Coli (serum type 055:B5) derived LPS was dissolved in PBS in a concentration of 1 mg/ml, then sterilized by filtration. The test compound was dissolved in DMSO to make a 1000-fold concentration solution of the final concentration of use. 10 μl of the above LPS stock solution (final concentration 10 μg/ml) and 1 μl of the tested substance stock solution were added and mixed in 0.5 ml of RPMI1640 medium containing 10% fetal calf serum. This was added to the above cells at 50 μl/well and cultured for 8 hours. The cultured supernatant was recovered from each well and the TNF-α concentration was measured by the ELISA method (Cytoscreen® Immunoassay Kit Mouse TNF-α, BioSource International).

As usually defined, the IC50 is the concentration needed to halve the response being measured. For the compound `O=C(Nc1ccc(O)cc1)c1cn(-c2ccc(F)cc2)c2ncccc2c1=O` [Example 75, 1-(4-Fluorophenyl)-N-(4-hydroxyhenyl)-1,4-dihydro[1,8]naphthylidin-4-one-3-arboxamide], the half-maximal inhibitory concentration (IC50) in experiment [1] came out at 0.1 µM; in experiment [2] (Peritoneal macrophage), 0.2 µM.

With `O=C(Nc1c(Cl)cncc1Cl)c1cn(-c2cccnc2)c2ncccc2c1=O` [Example 136, N-(3,5-Dichloropyridin-4-yl)-1-(3-pyridyl)-1,4-dihydro[1,8]naphthylidin-4-one-3-carboxamide], the concentration for half-maximal inhibition (IC50) in experiment [1] was determined as 0.0008 µM; in experiment [2], 0.003 µM.

`O=C(Nc1cccc(CO)c1)c1cn(-c2ccc(F)cc2)c2ncccc2c1=O` [Example 79, 1-(4-fluorophenyl)-N-(3-hydroxymethylphenyl)-1,4-dihydro[1,8]naohthylidin-4-one-3-carboxamide]: the results for the IC50 in experiment [1] and in experiment [2] (Peritoneal macrophage) were 0.055 µM and 0.3 µM, respectively.

On to `O=C(Nc1ccccc1[N+](=O)[O-])c1cn(-c2ccc(F)cc2)c2ncccc2c1=O` [Example 93, 1-(4-fluorophenyl)-N-(2-nitrophenyl)-1,4-dihydro[1,8]naohthylidin-4-one-3-carboxamide], for which the IC50 in experiment [1] is 0.016 µM; in experiment [2] (Peritoneal macrophage) it was 0.03 µM.

For `O=C(Nc1c(Cl)cncc1Cl)c1cn(-c2nccs2)c2ncccc2c1=O` [Example 152, N-(3,5-Dichloropyridin-4-yl)-1-(2-thiazolyl)-1,4-dihydro[1,8]naphthylidin-4-one-3-carboxamide], the results for the IC50 in experiment [1] and in experiment [2] (Peritoneal macrophage) were 0.0059 µM and 0.03 µM, respectively.

As for `O=C(Nc1c(Cl)cncc1Cl)c1cn(-c2ccccn2)c2ncccc2c1=O` [Example 133], the IC50 stood at 0.0064 µM in experiment [1] and 0.004 µM in experiment [2].

For `O=C(Nc1ccncc1)c1cn(-c2cccc(CO)c2)c2ncccc2c1=O` [Example 127, 1-(3-Hydroxymethylphenyl)-N-(4-pyridyl)-1,4-dihydro[1,8]naphthylidin-4-one-3-carboxamide], the IC50 amounted to 0.056 µM in experiment [1] and 0.3 µM in experiment [2] (Peritoneal macrophage).

Regarding `O=C(Nc1cccc2ncccc12)c1cn(-c2ccc(F)cc2)c2ncccc2c1=O` [Example 113, 1-(4-Fluorophenyl)-N-(5-quinolyl)-1,4-dihydro [1,8]naphthylidin-4-one-3-carboxamide], the IC50 in experiment [1] turned out to be 0.044 µM; in experiment [2] (Peritoneal macrophage), 0.06 µM.

As to `O=C(Nc1ccc(F)cc1)c1cn(-c2ccc(F)cc2)c2ncccc2c1=O` [Example 98, 1,N-bis-(4-fluorophenyl)-1,4-dihydro[1,8]naphthylidin-4-one-3-carboxamide], the values for the 50% inhibitory concentration (IC50) in experiment [1] and in experiment [2] (Peritoneal macrophage) were 0.16 µM and 1 µM, respectively.

Consider `O=C(Nc1c(Cl)cncc1Cl)c1cn(-c2ccc(O)nc2)c2ncccc2c1=O` [Example 147, N-(3,5-Dichloropyridin-4-yl)-1-(2-hydroxypyridin-5-yl)-1,4-dihydro[1,8]naphthylidin-4-one-3-carboxamide], for which the IC50 in experiment [1] is 0.0011 µM; in experiment [2] (Peritoneal macrophage), 0.02 µM.

On to `O=C(Nc1ccccc1)c1cn(-c2ccc(F)cc2)c2ncccc2c1=O` [Example 67, N-phenyl-1-(4-fluorophenyl)-1,4-dihydro[1,8]naphthylidin-4-one-3-carboxamide], for which the half-inhibitory concentration (IC50) in experiment [1] came to 0.06 µM; in experiment [2] (Peritoneal macrophage), 0.7 µM.

Turning to `CC(=O)c1cccc(NC(=O)c2cn(-c3ccc(F)cc3)c3ncccc3c2=O)c1` [Example 81, N-(3-acetophenyl)-1-(4-fluorophenyl)-1,4-dihydro[1,8]naphthylidin-4-one-3-carboxamide], the IC50 came out at 0.11 µM in experiment [1] and 0.5 µM in experiment [2] (Peritoneal macrophage).

Consider `COc1cccc(NC(=O)c2cn(-c3ccc(F)cc3)c3ncccc3c2=O)c1` [Example 77, 1-(4-Fluorophenyl)-N-(3-methoxyphenyl)-1,4-dihydro[1,8]naphthylidin-4-one-3-carboxamide], for which the IC50 in experiment [1] was 0.18 µM; in experiment [2] (Peritoneal macrophage), 0.1 µM.

On to `NC(=O)c1cn(-c2ccc(F)cc2)c2ncccc2c1=O` [Example 51, 1-(4-Fluorophenyl)-1,4-dihydro[1,8]naphthylidin-4-one-3-carboxamide], for which the concentration for half-maximal inhibition (IC50) in experiment [1] amounted to 1.4 µM; in experiment [2] (Peritoneal macrophage) it was 0.4 µM.

In the case of `O=C(Nc1cnccn1)c1cn(-c2ccc(F)cc2)c2ncccc2c1=O` [Example 109, 1-(4-Fluorophenyl)-N-pyrazinyl-1,4-dihydro[1,8]naphthylidin-4-one-3-carboxamide], the IC50 in experiment [1] and in experiment [2] (Peritoneal macrophage) was 0.4 µM throughout.

Regarding `Nc1ccccc1NC(=O)c1cn(-c2ccc(F)cc2)c2ncccc2c1=O` [Example 90, N-(2-aminophenyl)-1-(4-fluorophenyl)-1,4-dihydro[1,8]naphthylidin-4-one-3-carboxamide], the half-inhibitory concentration (IC50) in experiment [1] amounted to 0.096 µM; in experiment [2] (Peritoneal macrophage), 0.5 µM.

As for `O=C(Nc1cccnc1)c1cn(-c2cccnc2)c2ncccc2c1=O` [Example 134, 1,N-bis-(3-Pyridyl)-1,4-dihydro[1,8]naphthylidin-4-one-3-carboxamide], the IC50 in experiment [1] is 0.47 µM; in experiment [2] (Peritoneal macrophage) it was 0.8 µM.

In the case of `O=C(NCc1ccccc1)c1cn(-c2ccc(F)cc2)c2ncccc2c1=O` [Example 61, N-benzyl-1-(4-fluorophenyl)-1,4-dihydro[1,8]naphthylidin-4-one-3-carboxamide], the IC50 in experiment [1] worked out at 0.39 µM; in experiment [2] (Peritoneal macrophage), 1 µM.

Turning to `O=C(Nc1cccc2cnccc12)c1cn(-c2ccc(F)cc2)c2ncccc2c1=O` [Example 114], the values for the half-maximal inhibitory concentration (IC50) in experiment [1] and in experiment [2] (Peritoneal macrophage) were 0.21 µM and 0.1 µM, respectively.

On to `O=C(Nc1c(Cl)ncnc1Cl)c1cn(-c2ccc(F)cc2)c2ncccc2c1=O` [Example 108, 1-(4-Fluorophenyl)-N-(4,6-dichloropyrimidine-5-yl)-1,4-dihydro[1,8]naphthylidin-4-one-3-carboxamide], for which the half-maximal inhibitory concentration (IC50) was found to be 0.0046 µM in experiment [1] and 1 µM in experiment [2] (Peritoneal macrophage).

Regarding `O=C(O)c1cccc(NC(=O)c2cn(-c3ccc(F)cc3)c3ncccc3c2=O)c1` [Example 86, 3-[{[1-(4-Fluorophenyl)-1,4-dihydro[1,8]naohthylidin-4-one-3-yl]carbonyl}amino]benzoic Acid], the half-maximal inhibitory concentration (IC50) was 0.032 µM in experiment [1] and 0.4 µM in experiment [2] (Peritoneal macrophage).

In the case of `O=C(Nc1ccncn1)c1cn(-c2ccc(F)cc2)c2ncccc2c1=O` [Example 107, 1-(4-Fluorophenyl)-N-(4-pyrimidyl)-1,4-dihydro[1,8]naphthylidin-4-one-3-carboxamide], the half-inhibitory concentration (IC50) in experiment [1] is 0.52 µM; in experiment [2] (Peritoneal macrophage), 1 µM.

In the case of `O=C(Nc1ccncc1)c1cn(-c2cccnc2)c2ncccc2c1=O` [Example 135, 1-(3-Pyridyl)-N-(4-pyridyl)-1,4-dihydro[1,8]naphthylidin-4-one-3-carboxamide], the half-inhibitory concentration (IC50) in experiment [1] stood at 0.13 µM; in experiment [2] (Peritoneal macrophage), 0.5 µM.

In the case of `NC(=O)c1cccc(NC(=O)c2cn(-c3ccc(F)cc3)c3ncccc3c2=O)c1` [Example 87, N-[3-(aminocarbonyl)phenyl]-1-(4-fluorophenyl)-1,4-dihydro[1,8]naphthylidin-4-one-3-carboxamide], the IC50 in experiment [1] is 0.072 µM; in experiment [2] (Peritoneal macrophage) it was 0.2 µM.

As to `Cc1cccc(NC(=O)c2cn(-c3ccc(F)cc3)c3ncccc3c2=O)c1` [Example 70, 1-(4-Fluororhenyl)-N-(3-tolyl)-1,4-dihydro[1,8]naohthylidin-4-one-3-carboxamide], the half-maximal inhibitory concentration (IC50) in experiment [1] is 0.61 µM; in experiment [2] (Peritoneal macrophage) it was 1 µM.

For the compound `O=C(NCCO)c1cn(-c2ccc(F)cc2)c2ncccc2c1=O` [Example 58, 1-(4-Fluorothenyl)-N-(2-hydroxyethyl)-1,4-dihydro[1,8]naphthylidin-4-one-3-carboxamide], the IC50 in experiment [1] and in experiment [2] (Peritoneal macrophage) was 0.42 µM each time.

These data come from patent US6541480B2, “1-aryl-1,8-naphthylidin-4-one derivative as type IV phosphodiesterase inhibitor” (Suntory Limited, priority 1997, dated 2003).
